# Results as given in patent US20210322327A1, “EXTRACELLULAR VESICLES COMPRISING STING-AGONIST” (Codiak BioSciences, Inc., priority 2018, published 2021).
# What was measured:
# B16F10 melanoma cells = experiment: B16F10 subcutaneous primary tumor growth in lung metastasis challenge study; assay type: in vivo, C57BL/6 mice; conditions: by day 17
# Text: Activation of the STING pathway promotes antigen presentation and induces a durable T-cell response, as shown in Examples 11 and 12. Thus, the immune memory response induced by EXOSTING™ may be sufficient to prevent tumor metastasis after a local administration in a primary tumor. To test this hypothesis, exosomes purified from HEK293SF cells overexpressing PTGFRN were loaded with the cyclic dinucleotide 3-3 cAIMPdFSH as described in Example 1. C57BL/6 mice were inoculated subcutaneously with 1×10^6 B16F10 melanoma cells on day zero and challenged with an additional tail vein injection of 1×10^5 B16F10 melanoma cells to seed lung metastases (n=8 mice per group). Five, eight, and eleven days post-inoculation the mice were injected intratumorally at the subcutaneous tumor with PBS, 20 μg 3-3 cAIMPdFSH, 120 ng 3-3 cAIMPdFSH, or either 120 ng, 12 ng, or 1.2 ng 3-3 cAIMPdFSH loaded in PTGFRN-overexpressing exosomes (Exo STING Agonist). […] Lungs from all mice were harvested, imaged, and counted for metastases. […] As little as 12 ng of Exo STING Agonist prevented lung metastasis to the same extent as 20 μg STING Agonist (FIGS. 46B and 47).
# [1] = test system: CD8+ T-cells, macrophages, and dendritic cells; experiment: Live CD45+ cell populations in B16F10 tumors 24 hours post-injection; assay type: in vivo, mice; conditions: 20 μg intratumoral
# Description: Constitutive activation of the STING pathway results in robust pro-inflammatory signaling and may be toxic to cells and tissues (N Engl J Med. 2014 Aug. 7; 371(6): 507-518). Non-selective delivery of STING agonists in a tumor microenvironment may result in a robust IFNβ response, but if response is too strong or originates in undesired cell populations, effector cells such as CD8^+ T-cells may be killed or otherwise attenuated. B16F10 melanoma tumors were injected with PTGFRN-overexpressing exosomes labeled with Alexa Fluor™ 488 and removed one hour post-injection. Tumor-infiltrating lymphocytes were purified and measured for fluorescence at 488 nm to track exosome uptake. Only ˜20% of T-cells engulfed exosomes, while ˜90% and ˜70% of macrophages and dendritic cells, respectively, engulfed exosomes (FIG. 51A). […] 24 hours post-injection, the tumors were isolated, homogenized, and live CD45^+ cell populations were counted. […] Non-selective delivery of high doses of STING agonists therefore may attenuate desirable immune stimulatory responses.
# E.G7-OVA cells = experiment: E.G7-OVA T-cell lymphoma tumor growth, intratumoral injection; assay type: in vivo, C57BL/6 mice
# Description: To test this hypothesis, C57BL/6 mice were inoculated subcutaneously with 1×10^6 E.G7-OVA cells (ATCC®; CRL-2113™), a murine T-cell lymphoma cell line engineered to stably express OVA and allow for modeling antigen-specific T-cell responses in mice (n=5 mice per group). Ten, 13, and 16 days post-inoculation the mice were injected intratumorally with PBS, 20 μg ML RR-S2, 0.2 μg ML RR-S2, or 0.2 μg ML RR-S2 loaded in PTGFRN-overexpressing exosomes). […] Splenic T-cells from all groups were isolated and measured for OVA-specific reactivity as described in Example 11.
# A20 lymphoma cells = experiment: CIVO intratumoral microinjection, cleaved caspase 3 staining; assay type: in vivo, BALB/cAnNHsd mice
# Description: All experiments in mice were approved by IACUC Board of Presage Biosciences, Seattle, Wash. (Protocol number PR-001) and were performed at Presage in accordance with relevant guidelines and regulations. All relevant procedures were performed under anesthesia and all efforts were made to minimize pain and suffering. Female BALB/cAnNHsd mice (Envigo) with an average weight of 18 gm were used for experiments at 5-7 weeks of age. For generating A20 allografts, mice were inoculated with 1 million A20 cells in 100 μl inoculation volume.
# CIVO intra-tumoral microinjections were performed as described in Klinghoffer et al. (2016) Science Translational Medicine. Briefly, mice (n=6 per time point, 4 and 24 hours) were enrolled in microinjection studies when implanted tumors reached the following approximate dimensions: 14 mm (length), 10 mm (width) and 7 mm (depth). […]
# Images of every cell from each tissue section stained were captured by digital, automated, high-resolution whole-tissue scanning (3D Histech Panoramic 250 Flash). Tumor responses were quantified from image files from each tissue section using Presage's custom CIVO Analyzer image analysis platform. […] In order to mitigate the influence of pre-existing necrosis on biomarker measurements, injection sites that fall within largely acellular tumor regions are excluded prior to quantitative analysis. […]
Compound,primary tumor growth (B16F10 melanoma cells; 120 ng free),"primary tumor growth (B16F10 melanoma cells; 20 μg intratumoral days 5, 8, 11)","CD8+ T-cells, macrophages, and dendritic cells in tumor [1]","tumor growth compared to PBS (E.G7-OVA cells; 0.2 μg intratumoral days 10, 13, 16)","tumor growth compared to PBS (E.G7-OVA cells; 20 μg intratumoral days 10, 13, 16)","cleaved caspase 3 (CC3) (A20 lymphoma cells; high dose free (printed 2 g), four and 24 hours)",cleaved caspase 3 (CC3) (A20 lymphoma cells; low dose free (printed 200 ng))
"Nc1ncnc2c1ncn2[C@@H]1O[C@@H]2COP(=O)(S)O[C@H]3[C@@H](F)[C@H](n4cnc5c(=O)[nH]cnc54)O[C@@H]3COP(O)(=S)O[C@H]2[C@H]1F (stereo partly shown) [3-3 cAIMPdFSH, 3′3′-cAIMPdFSH]",no tumor regression observed,did not grow,–,–,–,–,–
Nc1ncnc2c1ncn2[C@@H]1O[C@@H]2COP(O)(=S)O[C@@H]3C(O)[C@@H](COP(O)(=S)O[C@H]2[C@H]1O)O[C@H]3n1cnc2c(N)ncnc21 (stereo partly shown) [ML RR-S2 CDA],–,–,dramatically reduced compared to the other groups,moderately attenuated tumor growth,dramatically prevented tumor growth,dramatically increased at four and 24 hours,modest
